Data from patent publication EP0728482A2, “Use of hcp specific compounds to enhance erythropoiesis” (SMITHKLINE BEECHAM CORPORATION, priority 1995, dated 1996).

Target: T1, human src SH2 domain (Homo sapiens, UniProt P12931)
T1 construct: made in house; host or cells: E. coli AR120
Experiment: ELISA-based SH2 domain / pY peptide binding assay, src SH2 domain
Method: The inhibitory activity of compounds at the different human SH2 domains was determined in vitro using SH2 domains expressed as fusion proteins in E. coli. The SH2 domains used herein were the human forms of the src SH2 domain, Grb2 SH2 domain, lck SH2 domain, fyn SH2 domain, SH-PTP2 SH2 domain, p85 SH2 domain and hcp SH2 domain.
The fusion proteins containing the src, lck and hcp SH2 domains were expressed as the general sequence: DET1-DET2-spacer-ek-SH2, where DET1, DET2, spacer, ek and SH2 are as described below. DET1 ("defined epitope tag 1") (SEQ ID NO: 1) is an 11 amino acid sequence found in the Human Immunodeficiency Virus Type 1 (HIV-1) envelope protein gp120 (or gp160). Monoclonal antibodies to various epitopes of HIV-1 gp120 (or gp 160) are known in the art, see, for example U.S. Patent 5,166,050. One preferred example is monoclonal antibody 178.1 (see, e.g., Thiriart et al., J. Immunol., 143:1832-1836 (1989)), which was prepared by immunization of mice with a yeast-expressed HIV-1 gp160 molecule from strain BH10 (Ratner et al., Nature, 313:277-284 (1985)). This tag was used for detection of expression (by Western blot), for purification of the protein (by affinity chromatography), and for configuring assays in which the fusion protein was captured or immobilized using the 178.1 antibody. DET2 is a hexa-histidine sequence tag (SEQ ID NO: 2) which binds to nickel-containing resins and was used for purification purposes. Spacer (SEQ ID NO: 3) was utilized to design a BamH1 restriction site at the indicated position of the construct. The term -ek-refers to a recognition sequence (SEQ ID NO: 4) for the enterokinase protease which provides for the optional removal of the tags from the SH2 domain, thus producing an SH2 domain that contains no extraneous amino acids. SH2 domains which contain no extraneous amino acids are preferable to tagged protein for crystallography studies. SH2 refers to the SH2 domains of different proteins.
Procedure 2: Cloning, expression and purification of human src SH2 domain containing tags and an enterokinase proteolytic cleavage site (DET1-DET2-spacer-ek-src SH2).
A DNA sequence encoding protein ek-src SH2 was PCR amplified from a cDNA clone containing the human src gene (c-src SH2 DNA sequence identical to that described in Takeya,T. and Hanafusa, H, 1983 Cell 32:881-890) using the following primers: [formula]
The PCR product was digested with BamHI and XbaI, followed by isolation of the digested fragment on an agarose gel. The fragment was ligated into BamHI-XbaI-digested expression vector containing the tagged chicken src gene DET1-DET2-spacer-SH2 described in Procedure 1 above. In that vector, the BamHI site is located between the coding regions for DET2 and SH2, and the XbaI site is located after the 3' end of the SH2 coding region. The ligation reaction was used to transform E. coli MM294cI^+. The construct DET1-DET2-spacer-ek-src SH2 was confirmed by DNA sequencing (SEQ ID NO: 5) and induced in E. coli strain AR120 as described in Procedure 1 above. A Coomassie-Blue-stained, Western-blot-positive induced protein band with an apparent molecular weight of 16,000 was observed after nalidixic acid induction.
Cells were lysed at neutral pH by sonication in the presance of lysozyme. After centrifugation, the soluble extract was chromatographed on a Ni^++NTA column. After washing the column with equilibration buffer (Tris buffer pH 8 containing 0.5 M Nacl) and the same buffer containing 15 mM imidazole, the protein was eluted in highly purified form with 25 mM imidazole in equilibration buffer.
The binding assays for the SH2 domains and pY peptides were performed in an ELISA-based 96 well plate assay. […]

T1 sequence (P12931 148-251): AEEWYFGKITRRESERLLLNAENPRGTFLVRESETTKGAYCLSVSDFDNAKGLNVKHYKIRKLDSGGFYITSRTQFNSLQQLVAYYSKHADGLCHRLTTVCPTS

`CCCCCCNC(=O)[C@H]1CC[C@H](CNC(=O)c2ccc(C(=O)c3ccc(C(=O)O)cc3)cc2)CC1` [Compound 6, 4-carboxy-benzophenone-4-carboxamido-trans-4-methyl-cyclohexyl-N-hexyl carboxamide] showed a Ki (Ki calculated from IC50 with the expanded equation) of 13 µM and an IC50 (inhibition of binding of 0.1 uM biotinylated pY peptide to SH2 domain fusion protein) of 20 µM.
